The nature of data set [1]: C0 in C57BL/6 mouse plasma at 2.5 mg/kg, iv measured upto 24 hrs post dosing by LC-MS/MS. The data set is classed as ADME, organism-based. The following applies: in vivo.
Data set [2] is described as follows: Volume in the terminal state in C57BL/6 mouse plasma at 2.5 mg/kg, iv measured upto 24 hrs post dosing by LC-MS/MS. The conditions noted are these: in vivo. The class given is ADME, organism-based.
Data set [3] in a line: Volume of distribution at steady state in C57BL/6 mouse plasma at 2.5 mg/kg, iv measured upto 24 hrs post dosing by LC-MS/MS. The class given is ADME, organism-based. The following applies: in vivo.
Data set [4] can be described thus: Tmax in C57BL/6 mouse plasma at 10 mg/kg, po measured 4 hrs post dosing by LC-MS/MS. The conditions noted are these: in vivo. The class given is ADME, organism-based.
The nature of data set [5]: Cmax in C57BL/6 mouse plasma at 10 mg/kg, po measured upto 24 hrs post dosing by LC-MS/MS. The following applies: in vivo. The class given is ADME, organism-based.
Data set [6] can be described thus: MRT in C57BL/6 mouse plasma at 10 mg/kg, po measured upto 24 hrs post dosing by LC-MS/MS. The conditions noted are these: in vivo. The data set is classed as ADME, organism-based.
Data set [7] relates to Chikungunya virus. In words: Antiviral activity against CHIKV infected in C57BL/6 mouse assessed as mouse survival at 300 mg/kg/day, ip measured after 6 days post infection. The class given is functional, organism-based. The conditions noted are these: time 6.0 day.
The test system of data set [8] is Chikungunya virus. The data set is described as follows: Antiviral activity against CHIKV infected in C57BL/6 mouse assessed as mouse survival at 100 mg/kg/day, ip measured after 6 days post infection. The class given is functional, organism-based. The following applies: time 6.0 day.
For data set [9], the system named is Chikungunya virus. In words: Antiviral activity against CHIKV infected in C57BL/6 mouse assessed as footpad swelling at 100 mg/kg/day, ip measured after 6 days post infection (reference value: 40.9+/-12.4). The class given is functional. The following applies: time 6 day.
For data set [10], the system named is Chikungunya virus. In words: Antiviral activity against CHIKV infected in C57BL/6 mouse assessed as footpad swelling at 300 mg/kg/day, ip measured after 6 days post infection (Rvb =40.9+/-12.4). The class given is functional. The following applies: time 6 day.
Data set [11] deals with Chikungunya virus. In words: Antiviral activity against CHIKV infected in C57BL/6 mouse assessed as virus titers at 300 mg/kg/day, ip measured after 6 days post infection (reference value: 5.3+/0.3). The class given is functional. The conditions noted are these: time 6 day.
Data set [12] in a line: Toxicity in C57BL/6 mouse model assessed as effect on ALT level at 300 mg/kg/day, ip measured after 6 days post infection (reference value: 29 to 33). The class given is organism-based. The following applies: in vivo, 144 h, time 6 day.
Data set [13] is described as follows: Toxicity in C57BL/6 mouse model assessed as effect on AST level at 300 mg/kg/day, ip measured after 6 days post infection (reference value: 64 to 100). The data set is classed as organism-based. The conditions noted are these: in vivo, 144 h, time 6 day.
Data set [14] is described as follows: Toxicity in C57BL/6 mouse model assessed as effect on CREAT level at 300 mg/kg/day, ip measured after 6 days post infection (reference value: 0.39 to 0.43). The data set is classed as organism-based. The following applies: in vivo, 144 h, time 6 day.
A short description of data set [15]: Toxicity in C57BL/6 mouse model assessed as effect on TBILI level at 300 mg/kg/day, ip measured after 6 days post infection (reference value: 0.30 to 0.43). The data set is classed as organism-based. The following applies: in vivo, 144 h, time 6 day.
The target of data set [16] is Cytochrome P450 2C9 (Homo sapiens, UniProt P11712). In words: Inhibition of CYP2C9 (unknown origin). The class given is ADME.
In data set [17] the target is Cytochrome P450 2C19 (Homo sapiens, UniProt P33261). The data set is described as follows: Inhibition of CYP2C19 (unknown origin). The data set is classed as ADME.
Data set [18] has as its target Cytochrome P450 3A4 (Homo sapiens, UniProt P08684). In words: Inhibition of CYP3A4 (unknown origin). The class given is ADME.
In data set [19] the target is T1, A-type voltage-gated potassium channel KCND3 (Homo sapiens, UniProt Q9UK17).
T1 sequence (Q9UK17 whole entry): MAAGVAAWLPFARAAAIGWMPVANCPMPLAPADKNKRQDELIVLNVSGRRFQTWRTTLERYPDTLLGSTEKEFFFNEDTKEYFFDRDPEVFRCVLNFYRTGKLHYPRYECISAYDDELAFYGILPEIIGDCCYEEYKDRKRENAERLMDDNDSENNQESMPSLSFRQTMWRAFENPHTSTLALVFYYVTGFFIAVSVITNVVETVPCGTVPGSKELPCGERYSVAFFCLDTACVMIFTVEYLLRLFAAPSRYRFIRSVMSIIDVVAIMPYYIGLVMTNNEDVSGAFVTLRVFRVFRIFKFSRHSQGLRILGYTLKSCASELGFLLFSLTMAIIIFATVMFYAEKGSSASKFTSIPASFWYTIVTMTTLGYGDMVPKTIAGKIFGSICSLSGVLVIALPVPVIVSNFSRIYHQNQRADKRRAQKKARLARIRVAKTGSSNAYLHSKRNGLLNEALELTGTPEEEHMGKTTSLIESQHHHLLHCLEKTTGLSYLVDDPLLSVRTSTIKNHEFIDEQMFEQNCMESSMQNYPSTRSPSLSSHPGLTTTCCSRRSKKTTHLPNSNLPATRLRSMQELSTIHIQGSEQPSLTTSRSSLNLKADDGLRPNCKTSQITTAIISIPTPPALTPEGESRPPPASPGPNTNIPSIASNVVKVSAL
In words: Antagonist activity at potassium channels hKv4.3/hKChiP2 expressed in HEK293 cells by Electrophysiology. The class given is toxicity, cell-based.

In data set [20] the test system is Kir2.1. In words: Antagonist activity at hKir2.1 expressed in HEK293 cells by Electrophysiology. The data set is classed as toxicity, cell-based. The following applies: human, HEK293 cells expressing hKir2.1.
Data set [21] concerns Cav1.2. The data set is described as follows: Antagonist activity at hCav1.2 expressed in HEK293 cells by Electrophysiology. The class given is toxicity, cell-based. The following applies: human, HEK293 cells expressing hCav1.2.

Active and inactive are the calls of the source. The calls are words filed in the database; no cut-off is given here.

Cytochrome P450 3A4, sequence (P08684 whole entry): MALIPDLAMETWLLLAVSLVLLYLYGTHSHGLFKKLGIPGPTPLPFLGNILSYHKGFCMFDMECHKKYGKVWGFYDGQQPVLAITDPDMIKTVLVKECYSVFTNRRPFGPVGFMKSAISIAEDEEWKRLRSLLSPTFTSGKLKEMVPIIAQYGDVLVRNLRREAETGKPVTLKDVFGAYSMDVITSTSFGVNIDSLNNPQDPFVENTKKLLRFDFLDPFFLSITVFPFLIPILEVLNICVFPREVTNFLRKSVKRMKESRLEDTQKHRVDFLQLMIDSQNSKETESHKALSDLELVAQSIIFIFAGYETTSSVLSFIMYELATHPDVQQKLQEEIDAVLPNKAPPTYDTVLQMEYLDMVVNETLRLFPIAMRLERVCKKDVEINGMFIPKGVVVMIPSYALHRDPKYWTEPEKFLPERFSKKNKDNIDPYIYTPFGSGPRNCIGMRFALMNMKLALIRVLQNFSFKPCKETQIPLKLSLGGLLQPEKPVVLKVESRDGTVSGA
Cytochrome P450 2C19, sequence (P33261 whole entry): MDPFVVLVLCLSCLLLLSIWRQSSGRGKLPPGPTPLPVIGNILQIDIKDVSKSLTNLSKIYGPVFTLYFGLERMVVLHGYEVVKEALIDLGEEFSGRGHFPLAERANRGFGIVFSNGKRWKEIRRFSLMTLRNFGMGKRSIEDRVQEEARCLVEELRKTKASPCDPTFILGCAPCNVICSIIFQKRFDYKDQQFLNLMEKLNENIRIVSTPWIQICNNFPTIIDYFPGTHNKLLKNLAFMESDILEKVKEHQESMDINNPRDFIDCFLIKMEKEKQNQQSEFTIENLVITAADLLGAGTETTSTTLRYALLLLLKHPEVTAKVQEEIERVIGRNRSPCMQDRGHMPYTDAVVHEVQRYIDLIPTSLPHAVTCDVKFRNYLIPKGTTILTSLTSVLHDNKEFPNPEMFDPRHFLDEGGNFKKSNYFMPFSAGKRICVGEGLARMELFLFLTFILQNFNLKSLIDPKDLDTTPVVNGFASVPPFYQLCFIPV
Cytochrome P450 2C9, sequence (P11712 whole entry): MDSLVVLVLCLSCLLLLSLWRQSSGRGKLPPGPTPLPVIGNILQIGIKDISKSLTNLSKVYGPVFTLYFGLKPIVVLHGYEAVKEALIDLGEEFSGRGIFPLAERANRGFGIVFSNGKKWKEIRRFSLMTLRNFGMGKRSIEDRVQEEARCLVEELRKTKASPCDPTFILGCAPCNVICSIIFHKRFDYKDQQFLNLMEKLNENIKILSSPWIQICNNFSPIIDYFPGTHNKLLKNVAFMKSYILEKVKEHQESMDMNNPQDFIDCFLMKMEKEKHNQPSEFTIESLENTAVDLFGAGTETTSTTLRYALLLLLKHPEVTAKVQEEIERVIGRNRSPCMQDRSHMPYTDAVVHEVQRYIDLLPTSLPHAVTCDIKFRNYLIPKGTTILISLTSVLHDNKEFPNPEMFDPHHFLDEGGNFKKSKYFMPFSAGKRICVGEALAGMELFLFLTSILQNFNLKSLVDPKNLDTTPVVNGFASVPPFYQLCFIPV

For `CC1CCNc2c(C(=O)NC/C=C/S(C)(=O)=O)cccc21` (stereo unspecified), the C0 in data set [1] was 966.5 ng/mL. Also, the Vz in data set [2] worked out at 4.5 L/kg. This compound registered a Vdss in data set [3] of 1.9 L/kg. The Tmax in data set [4] came out at 4 h. Besides, in [5], the Cmax was 125 ng/mL. In addition, the MRT in data set [6] came to 4.25 h. Also, the Survival result in data set [7] and in data set [8] was “Active” throughout. The Activity turned out to be 23.7% in data set [9]; 14.1% in data set [10]; 5.3 in data set [11]; 28 U/L in data set [12]; 64 U/L in data set [13]; 0.35 mg/dL in [14]. In [15], the Activity stood at 0.34 mg/dL. Further, the IC50 in data set [16], in [17], in [18], in data set [19], in data set [20] and in data set [21] was more than 100 µM in each case.

As usually defined, the Vz is a proportionality between amount in the body and measured concentration, not a real space. A high value points to extensive tissue distribution. The term Vdss denotes a proportionality between amount in the body and measured concentration, not a real space. A higher Vdss goes with extensive tissue distribution. For orientation: Tmax means the time at which the peak concentration occurs. As usually defined, the Cmax is the maximum level reached in the sampled fluid or tissue. The MRT is a mean duration of stay, worked out from the concentration-time curve. One may read the IC50 as the point on the concentration scale where inhibition reaches its midpoint. Read a high IC50 as weaker potency.

These data come from ChEMBL document CHEMBL6071156 (Eur J Med Chem, 2024).
